The values below come from patent US20260007133A1, “HERBICIDAL COMPOSITION COMPRISING AZINE COMPOUNDS” (BASF SE, priority 2022, published 2026).

Format in all cases: in vivo
Experiment [1] concerns Abutilon theophrasti. Put plainly: Greenhouse pre-emergence (PRE) herbicidal test on ABUTH. The following applies: PRE, 20 DAT; for % activity solo application: ABUTH. In short, it runs like this:
(§1)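 Herbicidal effect was assessed 20 DAT after pre-emergence treatment of sown pots, using a 0-100 scale where 100 means no emergence or destruction of at least the above-ground parts.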

Experiment [2] has as its system Amaranthus retroflexus. Briefly: Greenhouse pre-emergence (PRE) herbicidal test on AMARE. The following applies: PRE, 20 DAT; for % activity solo application: AMARE. The procedure:
The culture containers used were plastic pots containing loamy sand with approximately 3.0% of humus as substrate. The seeds of the test plants were sown separately for each species.
The containers were irrigated gently to promote germination and growth and subsequently covered with transparent plastic hoods until the plants had rooted.
Depending on the species, the plants were kept at 10-25° C. and 20-35° C., respectively.
The test period extended over 2 to 4 weeks. During this time, the plants were tended and their response to the individual treatments was evaluated.
Evaluation was carried out using a scale from 0 to 100. 100 means no emergence of the plants, or complete destruction of at least the above-ground parts, and 0 means no damage or normal course of growth. A good herbicidal activity is given at values of at least 70, and very good herbicidal activity is given at values of at least 85.
As indicated application was either post emergent (POST) at the respective growth stage (GS) of the weed (BBCH code), or pre-emergent (PRE). […]

For experiment [3], the system named is Ambrosia artemisiifolia. Put plainly: Greenhouse pre-emergence (PRE) herbicidal test on AMBEL. The following applies: PRE, 20 DAT; for % activity solo application: AMBEL.
Experiment [4] deals with Commelina benghalensis. Put plainly: Greenhouse pre-emergence (PRE) herbicidal test on COMBE. The following applies: PRE, 20 DAT; for % activity solo application: COMBE. In a few lines: as §1
The test system of experiment [5] is Echinochloa crus-galli. Briefly: Greenhouse pre-emergence (PRE) herbicidal test on ECHCG. The following applies: PRE, 20 DAT; for % activity solo application: ECHCG.
Experiment [6] has as its system Euphorbia heterophylla. Briefly: Greenhouse pre-emergence (PRE) herbicidal test on EPHHL. The following applies: PRE, 20 DAT; for % activity solo application: EPHHL. In short, it runs like this:
as §1

The subject of experiment [7] is Lolium multiflorum. Put plainly: Greenhouse pre-emergence (PRE) herbicidal test on LOLMU. The following applies: PRE, 20 DAT. In a few lines: as §1
In experiment [8] the test system is Setaria viridis. Briefly: Greenhouse pre-emergence (PRE) herbicidal test on SETVI. The following applies: PRE, 20 DAT; for % activity solo application: SETVI. In a few lines:
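First, each species was sown separately in loamy sand containing about 3.0% humus. Then the aqueous active compound was applied by finely distributing nozzles straight after sowing, pots were gently irrigated and covered with transparent hoods, and injury was assessed on a 0–100 scale at 20 DAT.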

The subject of experiment [9] is Digitaria sanguinalis. Put plainly: Greenhouse post-emergence (POST) herbicidal test on DIGSA. The following applies: POST, 20 DAT; for % activity solo application: DIGSA. In short, it runs like this:
(§2)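 For this test, compounds formulated as a 5% by weight emulsion concentrate were diluted into spray liquor and applied post-emergence. Species were kept at 10-25° C or 20-35° C and injury was scored at 20 DAT on a 0–100 scale.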

Experiment [10] concerns Echinochloa crus-galli. Put plainly: Greenhouse post-emergence (POST) herbicidal test on ECHCG. The following applies: Echinochloa crus-galli, post-emergence, 480 h, POST, 2 gai/ha, 20 DAT. In a few lines: as §2
Experiment [11] concerns Euphorbia heterophylla. Briefly: Greenhouse post-emergence (POST) herbicidal test on EPHHL. The following applies: POST, 20 DAT. In a few lines: as §2
Experiment [12] concerns Alopecurus myosuroides. Put plainly: Greenhouse pre-emergence (PRE) herbicidal test on ALOMY. The following applies: PRE, ALOMY, 20 DAT. In a few lines:
as §1

Experiment [13] has as its system Abutilon theophrasti. Briefly: Greenhouse post-emergence (POST) herbicidal test on ABUTH. The following applies: POST, ABUTH, 16 gai/ha, 20 DAT. In a few lines:
as §2

With `COCc1cnc(C2=NC(C)(C(C)C)C(=O)N2)c(C(=O)O)c1` (stereo not drawn) [Imazamox, imazamox], the pest or weed control at 1 g/ha in [1] (Abutilon theophrasti, pre-emergence, 480 h, 1 gai/ha) came to 10%; in experiment [3] (Ambrosia artemisiifolia, pre-emergence, 480 h, 1 gai/ha) it was 0%; in [4] (Commelina benghalensis, pre-emergence, 480 h, 1 gai/ha), 0%; in [5] (Echinochloa crus-galli, pre-emergence, 480 h, 1 gai/ha) it was 0%; in experiment [6] (Euphorbia heterophylla, pre-emergence, 480 h, 1 gai/ha), 10%; in experiment [7] (Lolium multiflorum, pre-emergence, 480 h, 1 gai/ha) it was 0%. In addition, the pest or weed control at 1 g/ha in experiment [11] (Euphorbia heterophylla, post-emergence, 480 h, 1 gai/ha) was 10%. In addition, the pest or weed control at 2 g/ha in [2] (Amaranthus retroflexus, pre-emergence, 480 h, 2 gai/ha) came to 25%; in experiment [3] (Ambrosia artemisiifolia, pre-emergence, 480 h, 2 gai/ha, read-out: % activity), 0%; in experiment [4] (Commelina benghalensis, pre-emergence, 480 h, 2 gai/ha, read-out: % activity), 0%; in [6] (Euphorbia heterophylla, pre-emergence, 480 h, 2 gai/ha) it was 15%; in experiment [8] (Setaria viridis, pre-emergence, 480 h, 2 gai/ha), 5%; in [9] (Digitaria sanguinalis, post-emergence, 480 h, 2 gai/ha) it was 55%. The pest or weed control at 2 g/ha in experiment [10] turned out to be 55%; in experiment [11] (Euphorbia heterophylla, post-emergence, 480 h, 2 gai/ha), 10%.

`FC(F)c1cc(-c2c(Cl)cccc2Oc2ncc(Cl)cn2)on1` [Rimisoxafen, rimisoxafen]: the “% activity solo application” value in experiment [1] (4 gai/ha) worked out at 0%; in experiment [1] (8 gai/ha) it was 5%; in experiment [1] (16 gai/ha), 5%; in experiment [1] (32 gai/ha), 35%; in experiment [12] (4 gai/ha), 0%; in experiment [12] (8 gai/ha), 0%. Besides, the “% activity solo application” value is 0% in [12] (16 gai/ha); 0% in [12] (32 gai/ha); 25% in experiment [2] (8 gai/ha); 75% in [2] (16 gai/ha); 0% in experiment [3] (4 gai/ha); 0% in experiment [3] (8 gai/ha). Besides, the “% activity solo application” value was 0% in experiment [3] (16 gai/ha); 0% in [3] (32 gai/ha); 0% in [4] (4 gai/ha); 10% in [4] (8 gai/ha); 0% in experiment [4] (16 gai/ha); 30% in [4] (32 gai/ha). Moreover, the “% activity solo application” value in [5] (4 gai/ha), in experiment [5] (8 gai/ha), in [5] (16 gai/ha), in [5] (32 gai/ha), in experiment [6] (8 gai/ha) and in experiment [6] (16 gai/ha) was 0% each time. In addition, the “% activity solo application” value in experiment [7] (LOLMU, 8 gai/ha) is given as 0%; in experiment [8] (8 gai/ha), 35%; in experiment [8] (16 gai/ha) it was 35%; in [13], 80%; in [9] (4 gai/ha) it was 5%; in experiment [9] (8 gai/ha), 5%. In addition, the “% activity solo application” value turned out to be 10% in experiment [9] (16 gai/ha); 20% in [9] (32 gai/ha); 15% in experiment [11] (EPHHL, 16 gai/ha).
